Experimental data published in PubChem BioAssay AID179 (DTP/NCI, 2004).
Where “and” joins values, the source holds several entries; their conditions need not be identical. Equal entries are not always repeated. Calls of active or inactive are those of the source.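 Rule for the calls: active = compounds giving half or more protection of infected cells from virus-caused growth loss, again on retest; inactive = the rest.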

Test system: CEM cells HIV-1 protection, formazan growth assay
Experiment: NCI AIDS Antiviral Assay
Conditions: for IC50: measured here: growth of uninfected CEM cells
Procedure, shortened: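 Protection of CEM cells against HIV-1 was scored from cell growth (soluble formazan) across five concentrations, with parallel uninfected cells. Lack of protection may reflect toxicity.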

Cc1ccccc1NC(=O)/C=N/O
outcome: inactive

COc1ccc(-c2cc3cc(Cl)cc(Cl)c3oc2=O)cc1OC
EC50: > 200 µM | IC50: 186 µM

C/C=C(/I)CBr
EC50: > 955 µM | IC50: 479 µM

CCOC(=O)C(Cc1ccccc1)C(=O)OCC
EC50: > 105 µM | IC50: > 105 µM

NC(=S)N/N=C(\CC1OC(=O)c2ccccc21)c1ccc(Cl)cc1 (configuration not stated)
EC50: > 83.2 µM | IC50: 7.24 µM

NC(=O)c1cccc(NC=O)c1
EC50: > 1510 µM | IC50: 1290 µM

Nc1ccc2c(c1)CN1C(=O)c3ccccc3C1=N2
EC50: > 15.1 µM | IC50: 2.95 µM

Cc1cc(NS(=O)(=O)c2ccc(Nc3c4ccccc4nc4c(C(=O)Nc5ccc(S(=O)(=O)N=C(N)N)cc5)cccc34)cc2)no1
EC50: 18.6 µM | IC50: 53.7 µM

CCC1(CC)COP(=S)(S)OC1
EC50: > 200 µM | IC50: > 200 µM

O=C(Nc1ccc2cc(S(=O)(=O)O)ccc2c1)c1ccc(N=Nc2cc(S(=O)(=O)O)c3ccccc3c2O)cc1
EC50: > 50.1 µM | IC50: > 50.1 µM

O=S(=O)(Cc1ccccc1)CS(=O)(=O)Cc1ccccc1
EC50: > 77.6 µM | IC50: > 77.6 µM

O=NN1C(c2ccccc2)CCCC1c1ccccc1 (configuration not stated)
EC50: > 51.3 µM | IC50: > 51.3 µM

CCCCN(CCCC)C(=O)COc1cc2c(O)c3c(O)c(C)c4c(c13)C(=O)C(C)(O/C=C/C(OC)C(C)C(OC(C)=O)C(C)C(O)C(C)C(O)C(C)/C=C/C=C(\C)C(=O)N2)O4 (configuration not stated)
EC50: > 91.2 µM | IC50: 11 µM

[Cl][Bi]([Cl])([c]1ccccc1)([c]1ccccc1)[c]1ccccc1
EC50: > 19.5 µM | IC50: 3.39 µM

CCCCCCCCCCCc1c2oc3ccc(C)cc3[nH]c-2cc(=O)c1=O
EC50: > 4.68 µM | IC50: > 4.68 µM

COc1ccc(C2=C(Cl)c3cc(OC)c(OC)cc3C2)cc1OC
EC50: > 200 µM | IC50: > 200 µM

COc1ccc(C(=O)/C=C/c2ccc(OCCCCCCCCCCOc3ccc(/C=C/C(=O)c4ccc(OC)cc4)cc3)cc2)cc1
EC50: > 200 µM | IC50: > 200 µM

O=C(O)Cn1ccc(=O)c2cc([N+](=O)[O-])ccc21
EC50: > 200 µM | IC50: > 200 µM

O=C(CNC(=O)OCc1ccccc1)NCCCCC(NC(=O)OCc1ccccc1)C(=O)NC(CCCCNC(=O)CNC(=O)OCc1ccccc1)C(=O)OCc1ccccc1 (configuration not stated)
EC50: > 100 µM | IC50: > 100 µM

O=C1OC2(c3ccccc31)c1ccc(O)c(O)c1Oc1c2ccc(O)c1O
EC50: > 200 µM | IC50: 36.3 µM and 33.1 µM and 9.55 µM

O=C(CCC(=O)Nc1cccc(Cl)c1)CC(=O)c1ccc(Cl)cc1
outcome: inactive

N#Cc1cnsc1
outcome: inactive

O=C(/C=C/c1ccc(O)c(O)c1)O[C@@H](C(=O)O)[C@@H](OC(=O)/C=C/c1ccc(O)c(O)c1)C(=O)O
EC50: > 200 µM | IC50: 17 µM

O=C(NC(=O)c1ccccc1)OC(c1ccccc1)C1CO1 (configuration not stated)
EC50: > 200 µM | IC50: > 200 µM

C[C@@H]1C(=O)CC2(O)[C@@]13C[C@@H](OC(=O)[C@@H]3O)[C@@H](C)[C@@]21COC1=O (some centres not stated)
EC50: > 813 µM | IC50: > 813 µM

O=C(Nc1ccc(Cl)cc1C(=O)O)c1ccc([N+](=O)[O-])cc1
outcome: inactive

O=c1c2cnccc2cc2c3ccccc3ccn12
EC50: > 200 µM | IC50: 7.41 µM

O=c1c2ccccc2sc2cccc(NCCCN3CCN(CCCNc4cccc5sc6ccccc6c(=O)c45)CC3)c12
EC50: > 100 µM | IC50: > 100 µM

N#CC(NCCc1ccccc1)c1ccc(C(C#N)NCCc2ccccc2)cc1 (configuration not stated)
EC50: > 200 µM | IC50: 10.5 µM

Fc1ccc(C2=NOC3COC4C=CC=CC4OCC23)cc1 (configuration not stated)
EC50: > 120 µM | IC50: > 120 µM

COc1ccccc1S(=O)(=O)Sc1ccccc1[N+](=O)[O-]
EC50: > 81.3 µM | IC50: 25.7 µM

C[n+]1c(-c2ccc(/C=N\NC(=O)c3ccc(C(=O)N/N=C/c4ccc(-c5cn6ccsc6[n+]5C)cc4)cc3)cc2)cn2ccsc21
EC50: > 50.1 µM | IC50: 0.501 µM

Cn1nnnc1SC(F)(F)c1nc2ccccc2o1
EC50: 126 µM | IC50: > 200 µM
